Laboratory results published in PMC8002023, “3D Pharmacophore-Based Discovery of Novel KV10.1 Inhibitors with Antiproliferative Activity” (Cancers, 2021).
Where two headings read alike, the source gives them in different places.

Tests used:
[1] = molecular target: T1, hERG (Homo sapiens, UniProt Q12809); experiment: Whole-cell patch clamp on stably transfected HEK-293 cells, hERG tail current; format: cell-based; conditions: peak tail current at −40 mV after +20 mV
T1 construct: expressed in transfected cells
Protocol: (§1) Whole-cell patch clamp experiments were performed on stably transfected HEK-293 cells. The cells were grown on fibronectin-coated glass coverslips in DMEM supplemented with 10% FCS and 300 µg/mL Zeocin. Experiments were performed at room temperature under continuous perfusion. The extracellular solution contained (mM) 160 NaCl, 2.5 KCl, 2 CaCl2, 1 MgCl2, 10 Hepes/NaOH, pH 7.4, 8 glucose. For the experiments determining conductance–voltage relationships, tail currents were made visible by substituting 60 mM NaCl by KCl ([…], 100 NaCl). Pipettes were pulled from #1 glass capillaries (WPI) to resistances of 1–3 MΩ when loaded with the intracellular solution (100 KCl, 45 N-methyl-D-glucamine, 10 1,2-bis(o-aminophenoxy)ethane-N,N,N′,N′-tetraacetic acid (BAPTA), 10 Hepes pH 7.35). Data acquisition was performed using a EPC10 Plus amplifier (HEKA Elektronik) and Patch Master software. Drug application was performed using an 8-channel fast solution exchanger (ALA). All compounds were dissolved in DMSO to a final concentration of 10 mM. 0.5% DMSO in extracellular solution served as control. KV10.1 currents were elicited by 500 ms depolarisations to +40 mV under continuous perfusion with the compound-containing or control solution. hERG current amplitudes were measured as the peak tail current during a 4 s repolarization to −40 mV after a depolarising pulse to +20 mV lasting for 2 s.

[2] = tested on: Panc1 cells; experiment: Cell growth in 2D culture (Incucyte confluence, 72 h), Panc1; format: cell-based; conditions: Homo sapiens, PANC-1, no KV10.1 and high hERG expression
Protocol: (§2) Cell lines MCF-7 (DSMZ ACC 115), PANC-1 (DSMZ ACC 783), and hTERT-RPE1 (ATCC CRL 4000) were grown in the media recommended by the cell provider in a humidified atmosphere at 5% CO2 and 37 °C. For cell growth experiments, 10^4 cells/well were seeded in 96-well flat bottom culture plates (Corning) and allowed to grow for 24 h. The compounds were then added in the corresponding growth medium, and the plate was imaged every hour for 72 h (two images per well and eight wells per condition in two independent experiments for compound 8 and five for ZVS-08 and compound 1) in an Incucyte system (Sartorius/Essen biosciences). Culture confluence was determined in the phase contrast images and is expressed as percent confluence per well. The growth was then normalised to the value in the absence of compounds.
KV10.1 inhibitors with a favourable pharmacological profile are promising candidates for cancer therapy. […] Different concentrations of the compounds were added to the culture medium and the growth of the cell was monitored over 72 h (Figure 14).

[3] = tested on: Colo357 tumour spheroids; experiment: Apoptosis (caspase 3/7 reporter) in tumour spheroids; format: cell-based; conditions: 50 µM, caspase reporter fluorescence over 72 h, 8.9 µM cycloheximide as sensitizer
Protocol: Spheroids were cultured in round bottom ultra-low attachment 96-well plates (Corning) at a density of 5000 cells/well in 2% Matrigel (Corning) and centrifuged at 1000× g for 10 min. Spheroid formation was monitored continuously in the Incucyte system and treatments were added once spheroids were formed. As apoptosis sensitizer, 8.9 µM cycloheximide was added to controls and treated spheroids. Caspase 3/7 green reagent (Sartorius; 1:1000) was used as recommended by the manufacturer. Caspase 3/7 reagent substrate crosses the cell membrane and its cleavage by activated caspase-3/7 results in the release of a DNA dye and fluorescent staining of nuclear DNA.
To test the ability of the compounds to inhibit tumour progression in a more predictive system, we performed experiments on tumour spheroids of the pancreatic cancer cell line Colo357, which grows efficiently in this culture modality. The cells were seeded in the presence of Matrigel (see methods), allowed to form spheroids, and the compounds (50 µM) were added to the growth medium. The control contained the same amount of the vehicle (0.5% DMSO). Apoptosis was monitored by addition of a fluorescent […] activity reporter at the same time as the compounds. Cleavage of the reporter by caspase results in green florescence, and the intensity of the fluorescence was recorded over 72 h.

[4] = molecular target: T2, KV10.1 (Homo sapiens, UniProt O95259); experiment: Whole-cell patch clamp on HEK-293 cells stably expressing KV10.1; format: cell-based; conditions: for inhibition at 10 µM: HEK293, mean ± standard error (or range); for KV10.1 inhibitory activity: SAR discussion of Table 3 (10 μM)
T2 construct: expressed in transfected cells
T2 sequence (O95259 1-962 isoform O95259-2): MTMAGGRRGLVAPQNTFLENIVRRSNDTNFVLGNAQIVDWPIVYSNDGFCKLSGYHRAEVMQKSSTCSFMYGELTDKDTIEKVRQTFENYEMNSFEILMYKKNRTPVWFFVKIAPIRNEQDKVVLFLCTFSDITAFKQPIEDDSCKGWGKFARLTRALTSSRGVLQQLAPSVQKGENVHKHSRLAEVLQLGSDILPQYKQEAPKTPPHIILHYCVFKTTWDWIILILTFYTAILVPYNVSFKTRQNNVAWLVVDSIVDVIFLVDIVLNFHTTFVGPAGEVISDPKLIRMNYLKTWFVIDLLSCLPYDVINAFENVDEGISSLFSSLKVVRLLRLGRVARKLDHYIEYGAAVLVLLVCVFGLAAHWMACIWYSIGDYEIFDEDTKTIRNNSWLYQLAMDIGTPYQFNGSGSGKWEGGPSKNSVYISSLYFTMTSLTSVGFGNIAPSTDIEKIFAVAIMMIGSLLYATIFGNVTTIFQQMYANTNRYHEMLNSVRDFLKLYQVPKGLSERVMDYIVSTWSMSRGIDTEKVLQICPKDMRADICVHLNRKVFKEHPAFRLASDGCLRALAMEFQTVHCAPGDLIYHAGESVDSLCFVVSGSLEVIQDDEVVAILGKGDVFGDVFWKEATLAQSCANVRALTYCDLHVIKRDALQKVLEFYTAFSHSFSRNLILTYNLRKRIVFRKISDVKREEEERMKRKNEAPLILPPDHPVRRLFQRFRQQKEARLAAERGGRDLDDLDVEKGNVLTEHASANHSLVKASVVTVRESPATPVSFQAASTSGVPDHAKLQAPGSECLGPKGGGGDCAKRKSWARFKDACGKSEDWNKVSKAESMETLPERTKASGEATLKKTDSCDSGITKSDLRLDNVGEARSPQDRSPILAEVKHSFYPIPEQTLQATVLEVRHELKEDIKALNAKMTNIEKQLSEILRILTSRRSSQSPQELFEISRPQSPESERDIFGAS

[5] = tested on: MCF-7 cells; experiment: Cell growth in 2D culture (Incucyte confluence, 72 h), MCF-7; format: cell-based; conditions: high KV10.1 and low hERG expression
Protocol: as §2
KV10.1 inhibitors with a favourable pharmacological profile are promising candidates for cancer therapy. To investigate the activity of the new compounds on cancer cells proliferation, compounds ZVS-08, 1 and 8 were tested on MCF-7, a breast cancer cell line showing high KV10.1 expression and low hERG expression, and on Panc1, a pancreatic cancer cell line with undetectable KV10.1 expression and high level of hERG expression. hTERT-RPE1 cells served as a non-cancer cell line. hTERT-RPE1 cells show transient physiological expression of Kv10.1 that begins during the G2 phase of the cell cycle and extends through mitosis as present in normal cells. Different concentrations of the compounds were added to the culture medium and the growth of the cell was monitored over 72 h (Figure 14).

[6] = molecular target: T2, KV10.1; experiment: Whole-cell patch clamp on HEK-293 cells stably expressing KV10.1; format: cell-based; conditions: for inhibition at 50 µM: HEK293, compound concentration 50 μM, stimuli to +40 mV, mean ± standard error, read-out: Effect on Kv10.1 (% Inhibition)
Protocol: as §1
The nine selected in silico hits were tested by manual patch-clamp on a HEK293 cell line stably expressing KV10.1 [33] at a compound concentration of 50 μM (Table 1). Compound activity was tested by determining the current amplitude elicited by repetitive stimuli to +40 mV from a holding potential of −80 mV. […] The hit compound ZVS-08 represents a new structural class of KV10.1 inhibitors with diarylamine structure and has a unique structure among the acquired virtual screening hits. […] The most notable change from the purpurealidin analogues is the replacement of the hydrogen bond acceptor group of the amide bond with the oxygen atom of the nitro group of ZVS-08.

[7] = molecular target: T2, KV10.1; set-up: method as in PMID 15365094; conditions: open-channel blocker; cited from earlier work

T1 sequence (Q12809 whole entry): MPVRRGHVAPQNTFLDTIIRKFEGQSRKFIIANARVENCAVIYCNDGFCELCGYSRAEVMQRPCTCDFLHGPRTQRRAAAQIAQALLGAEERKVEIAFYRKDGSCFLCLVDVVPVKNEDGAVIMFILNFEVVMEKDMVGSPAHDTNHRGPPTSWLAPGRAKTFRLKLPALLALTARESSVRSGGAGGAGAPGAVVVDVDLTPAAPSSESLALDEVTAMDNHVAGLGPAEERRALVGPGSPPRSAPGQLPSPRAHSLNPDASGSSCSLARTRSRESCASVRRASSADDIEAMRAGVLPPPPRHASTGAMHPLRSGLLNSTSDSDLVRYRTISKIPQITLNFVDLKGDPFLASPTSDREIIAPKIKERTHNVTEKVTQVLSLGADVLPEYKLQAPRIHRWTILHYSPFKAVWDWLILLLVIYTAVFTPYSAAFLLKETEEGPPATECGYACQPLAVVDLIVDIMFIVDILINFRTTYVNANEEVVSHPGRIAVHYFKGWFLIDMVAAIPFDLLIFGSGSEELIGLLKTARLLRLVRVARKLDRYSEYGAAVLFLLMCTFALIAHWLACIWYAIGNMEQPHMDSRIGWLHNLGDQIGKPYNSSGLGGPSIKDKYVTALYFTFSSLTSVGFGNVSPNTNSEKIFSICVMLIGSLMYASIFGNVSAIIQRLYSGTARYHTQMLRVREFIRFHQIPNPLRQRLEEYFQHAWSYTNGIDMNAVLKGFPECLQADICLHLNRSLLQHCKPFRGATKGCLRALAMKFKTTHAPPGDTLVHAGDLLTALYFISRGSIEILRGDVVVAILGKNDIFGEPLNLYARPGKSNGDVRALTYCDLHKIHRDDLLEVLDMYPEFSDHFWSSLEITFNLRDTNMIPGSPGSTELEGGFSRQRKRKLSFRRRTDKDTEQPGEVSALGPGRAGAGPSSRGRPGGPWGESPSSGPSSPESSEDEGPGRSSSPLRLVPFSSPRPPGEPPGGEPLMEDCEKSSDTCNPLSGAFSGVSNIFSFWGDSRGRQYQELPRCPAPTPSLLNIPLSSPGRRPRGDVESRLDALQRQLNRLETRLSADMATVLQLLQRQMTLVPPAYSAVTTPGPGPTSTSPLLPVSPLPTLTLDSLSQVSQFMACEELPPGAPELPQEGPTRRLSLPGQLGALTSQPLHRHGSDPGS

Row | inhibition at 10 µM [4] [%] | inhibition at 50 µM [6] [%] | SMILES | other results
1 | 87.3 ± 4.6 | – | CN(C)CCCOc1ccc(Nc2ccc(C(F)(F)F)cc2[N+](=O)[O-])cc1 [Compound 1] | IC50 [1]: 207 nM; IC50 [2]: > 30000 nM; apoptosis induction in tumour spheroids [3]: required longer time, but reached similar efficacy; IC50 ([5]; Homo sapiens, MCF7, 72 h): 5480 nM; IC50 [5]: ~5000 nM; IC50 ([6]; HEK-293, 500 ms depolarisation to +40 mV, read-out: IC50 Kv10.1): 740 nM
2 | 23.9 ± 26.8 | – | O=[N+]([O-])c1ccccc1Nc1ccc(OCC(O)CN2CCOCC2)cc1 (stereo not drawn) [Compound 2] | melting point: 95.6 to 97.5 °C
3 | 22.1 ± 33.5 | – | CN(C)CC(O)COc1ccc(Nc2ccccc2)cc1 (stereo not drawn) [Compound 3] | melting point: 88 to 90.1 °C; KV10.1 inhibitory activity [4]: almost inactive
4 | 36.6 ± 19.9 | – | CN(C)CCCOc1ccc(Nc2ccccc2[N+](=O)[O-])cc1 [Compound 4] | –
5 | 2.53 ± 11.7 | – | O=[N+]([O-])c1cc(C(F)(F)F)ccc1Nc1ccc(OCC(O)CNc2ccccc2)cc1 (stereo not drawn) [Compound 5] | –
6 | 57.5 ± 28.4 | – | CN(C)CC(O)COc1ccc(Nc2ccc(C(F)(F)F)cc2)cc1 (stereo not drawn) [Compound 6] | melting point: 76.3 to 79.1 °C
7 | 21 ± 30.3 | – | CN(C)CC(O)COc1ccc(Nc2ccccc2[N+](=O)[O-])cc1 (stereo not drawn) [Compound 7] | melting point: 76.1 to 77.3 °C
8 | 2 ± 7.45 | – | COC(=O)c1ccccc1Nc1ccc(OCC(O)CN(C)C)cc1 (stereo not drawn) [Compound 9] | KV10.1 inhibitory activity [4]: inactive
9 | 57 ± 21.7 | – | CN(C)CC(O)COc1ccc(Nc2ccc(C(F)(F)F)cc2N)cc1 (stereo not drawn) [Compound 10] | –
10 | 37.7 ± 7.13 | – | CN(C)CC(O)COc1ccc(Nc2ccccc2C(=O)O)cc1 (stereo not drawn) [Compound 11] | KV10.1 inhibitory activity [4]: inactive
11 | 16.6 ± 38.4 | – | CC(=O)NCC(O)COc1ccc(Nc2ccc(C(F)(F)F)cc2[N+](=O)[O-])cc1 (stereo not drawn) [Compound 12] | –
12 | – | -1.13 ± 4.5 | Cc1cccnc1C(=O)NCc1cnc(CCC2CCN(C)CC2)cn1 [ZVS-01] | –
13 | – | 5.03 ± 2.87 | CN1CCN(S(=O)(=O)c2ccc(CNC(=O)c3ccccc3)s2)CC1 [ZVS-02] | –
14 | – | -1.14 ± 3.47 | CN1CCOC(c2nccc(CNC(=O)Cc3cccs3)n2)C1 (stereo not drawn) [ZVS-03] | –
15 | – | -0.86 ± 0.75 | O=C(CCN1CCOCC1)Nc1ccc(S(=O)(=O)Nc2cc(Cl)cc(Cl)c2)cc1 [ZVS-04] | –
16 | – | 8.84 ± 4.92 | CN1CCN(c2cc(CNC(=O)Cc3noc4ccccc34)ccn2)CC1 [ZVS-05] | –
17 | – | -7.5 ± 4.65 | CN1CCN(c2cc(CNC(=O)c3cc(=O)[nH]c4ccccc34)ccn2)CC1 [ZVS-06] | –
18 | – | 4.68 ± 1.63 | COc1ccc(F)cc1C(=O)NCc1cnc(C2CCN(C)C2)[nH]1 (stereo not drawn) [ZVS-07] | –
19 | – | 0.15 ± 1.67 | CN(C)Cc1cncc(C2CCCN2C(=O)c2ccc3c(c2)CCC3)n1 (stereo not drawn) [ZVS-09] | –
20 | – | – | COc1ccc(CCN2CCC(Nc3nc4ccccc4n3Cc3ccc(F)cc3)CC2)cc1 [astemizole] | IC50 [7]: ~200 nM
